Source: paper PMC8459971, “Evaluation of the hepatotoxicity of the novel GPR40 (FFAR1) agonist CPL207280 in the rat and monkey” (PLoS ONE, 2021)
“And” between values parts separate entries of the source, which are not always exact repeats. Identical values can stand only once.

Columns and labels:
[1] = Stability in cryopreserved hepatocytes, human; type: in vitro ADME; settings: for Compound Remaining (% of 0 min): Hepatocyte Stability Human, single replicates
Protocol: The final incubation volume was 500 μL. Two control compounds (verapamil and donepezil) were included for each microsomal species, along with the appropriate vehicle control. The reactions were terminated by transferring 50 μL of incubate to 100 μL methanol containing an internal standard (metoprolol) at appropriate time points (0, 10, 20, 40, 60, and 120 min for the test compound and 0, 5, 10, 20, 40, and 60 min for the control compounds). The termination plates were centrifuged at 4000 x g at 4°C for 30 min to precipitate the protein. The supernatants were then collected for analysis, and LC-MS/MS was used for detection purposes. The system consisted of an Acquity™ Binary Solvent Manager, Acquity™ 4-position heated column manager, 2777 Ultra High Pressure Autosampler, and a Xevo-TQ MS triple quadrupole mass spectrometer (Waters Ltd., Herts, UK). This process was carried out twice.

[2] = Repeat-dose study in monkeys, pharmacokinetics (14 and 56 days); settings: monkey; for AUC: exposure - AUC
[3] = cryopreserved hepatocytes (suspension), Human hepatocytes, mean n = 2
[4] = dose 50 mg/kg, Day 1, individual animals, 50 mg/kg
[5] = dose 50 mg/kg, Day 14, individual animals, 50 mg/kg
[6] = dose 100 mg/kg, Day 1, individual animals, 100 mg/kg
[7] = dose 100 mg/kg, Day 14, individual animals, 100 mg/kg
[8] = dose 150 mg/kg, Day 1, individual animals, 150 mg/kg
[9] = dose 150 mg/kg, Day 56, individual animals, 150 mg/kg
[10] = dose 200 mg/kg, Day 1, individual animals, 200 mg/kg
[11] = dose 200 mg/kg, Day 14, individual animals, 200 mg/kg

Compound: CC#C[C@@H](CC(=O)O)c1ccc(OCC(C)=C(C)C)cc1 [CPL207280]
- Compound Remaining (% of 0 min) ([1]; 0 min): 100 % of 0 min
- Compound Remaining (% of 0 min) ([1]; 10 min): 73.2 % of 0 min and 74.0 % of 0 min
- Compound Remaining (% of 0 min) ([1]; 20 min): 42.2 % of 0 min and 46.1 % of 0 min
- Compound Remaining (% of 0 min) ([1]; 40 min): 20.6 % of 0 min and 16.0 % of 0 min
- Compound Remaining (% of 0 min) ([1]; 60 min): 10.5 % of 0 min and 7.67 % of 0 min
- Compound Remaining (% of 0 min) ([1]; 120 min): 3.07 % of 0 min and 1.62 % of 0 min
- half-life at 3 μM [1, 3]: 17 min
- microsomal CLint at 3 μM [1, 3]: 82.8 µL/min/mg
- AUC ([2]; both, Cynomolgus, plasma, po, 100 mg/kg, dose 100 mg/kg, Day 1, individual animals): 334 µg·h/mL
- AUC ([2]; both, Cynomolgus, plasma, po, 100 mg/kg, dose 100 mg/kg, Day 14, individual animals): 552 µg·h/mL
- Cmax ([2]; both, cynomolgus, plasma, po, 50 mg/kg, Cmax, dose 50 mg/kg, Day 1, individual animals): 38.5 µg/mL
- Cmax ([2]; both, cynomolgus, plasma, po, 50 mg/kg, Cmax, dose 50 mg/kg, Day 14, individual animals): 59.8 µg/mL
- AUC ([2]; both, cynomolgus, plasma, po, 200 mg/kg, dose 200 mg/kg, Day 1, individual animals): 794 µg·h/mL
- AUC ([2]; both, cynomolgus, plasma, po, 200 mg/kg, dose 200 mg/kg, Day 14, individual animals): 919 µg·h/mL
- Cmax ([2]; both, plasma, po, 200 mg/kg, Cmax, dose 200 mg/kg, Day 1, individual animals): 258 µg/mL
- Cmax [2, 4]: 54.2432 µg/mL and 70.1198 µg/mL and 73.0824 µg/mL
- exposure - AUC [2, 4]: 85.565 µg·h/mL and 262.448 µg·h/mL and 140.708 µg·h/mL and 87.498 µg·h/mL and 100.461 µg·h/mL and 109.347 µg·h/mL and 254.256 µg·h/mL and 110.743 µg·h/mL and 146.423 µg·h/mL and 105.958 µg·h/mL and 142.73 µg·h/mL and 220.718 µg·h/mL
- Cmax [2, 5]: 77.3656 µg/mL and 85.376 µg/mL and 71.8017 µg/mL
- exposure - AUC [2, 5]: 101.909 µg·h/mL and 132.812 µg·h/mL and 431.268 µg·h/mL and 124.571 µg·h/mL
- exposure - AUC ([2]; dose 50 mg/kg, Day 56, individual animals, 50 mg/kg): 150.303 µg·h/mL and 89.075 µg·h/mL and 182.055 µg·h/mL and 206.125 µg·h/mL and 124.755 µg·h/mL and 213.673 µg·h/mL and 113.523 µg·h/mL and 83.328 µg·h/mL
- Cmax [2, 6]: 47.7304 µg/mL and 196.843 µg/mL and 120.978 µg/mL and 122.802 µg/mL
- exposure - AUC [2, 6]: 385.402 µg·h/mL and 219.918 µg·h/mL and 309.18 µg·h/mL
- Cmax [2, 7]: 59.7137 µg/mL and 97.7733 µg/mL and 114.927 µg/mL and 30.391 µg/mL
- exposure - AUC [2, 7]: 540.113 µg·h/mL and 349.314 µg·h/mL and 371.77 µg·h/mL
- Cmax [2, 8]: 174.84 µg/mL and 194.31 µg/mL and 41.31 µg/mL and 61.81 µg/mL and 148.23 µg/mL and 203.64 µg/mL and 215.41 µg/mL and 167.94 µg/mL
- exposure - AUC [2, 8]: 687.155 µg·h/mL and 716.453 µg·h/mL and 299.365 µg·h/mL and 303.408 µg·h/mL and 583.353 µg·h/mL and 708.01 µg·h/mL and 517.538 µg·h/mL and 598.748 µg·h/mL
- Cmax [2, 9]: 206.99 µg/mL and 230.13 µg/mL and 188.65 µg/mL and 99.77 µg/mL and 256.14 µg/mL and 172.69 µg/mL and 25.09 µg/mL and 47.76 µg/mL
- exposure - AUC [2, 9]: 476.098 µg·h/mL and 561.835 µg·h/mL and 462.75 µg·h/mL and 833.928 µg·h/mL and 555.34 µg·h/mL and 670.743 µg·h/mL and 435.418 µg·h/mL and 360.168 µg·h/mL
- Cmax [2, 10]: 146.587 µg/mL and 153.261 µg/mL and 191.742 µg/mL
- exposure - AUC [2, 10]: 842.687 µg·h/mL and 783.604 µg·h/mL and 691.713 µg·h/mL
- Cmax [2, 11]: 263.213 µg/mL and 90.4785 µg/mL and 181.854 µg/mL and 224.986 µg/mL
- exposure - AUC [2, 11]: 610.926 µg·h/mL and 654.718 µg·h/mL and 646.623 µg·h/mL
- exposure - AUC ([2]; dose 250 mg/kg, Day 1, individual animals, 250 mg/kg): 1583.82 µg·h/mL and 721.808 µg·h/mL and 793.135 µg·h/mL and 1183 µg·h/mL and 1366.178 µg·h/mL and 895.14 µg·h/mL and 850.363 µg·h/mL and 1425.683 µg·h/mL and 1258.01 µg·h/mL and 575.98 µg·h/mL and 469.06 µg·h/mL and 783 µg·h/mL
- exposure - AUC ([2]; dose 250 mg/kg, Day 56, individual animals, 250 mg/kg): 1170.11 µg·h/mL and 1015.218 µg·h/mL and 686.383 µg·h/mL and 1887.035 µg·h/mL and 975.73 µg·h/mL and 1235.128 µg·h/mL and 1213.253 µg·h/mL and 997.608 µg·h/mL and 1100.488 µg·h/mL and 1004.075 µg·h/mL and 831.145 µg·h/mL and 1255.683 µg·h/mL
